The values below come from paper PMC2193167 (The Journal of Experimental Medicine, 2000).

No end group written: not given here.

One assay deals with HLA-A*0201 (Homo sapiens, UniProt P04439, D140Y/D185E/D98H/E176V/E277Q/G131W/G231S/I119V/I121R/I166T/I218V/L300P/L318F/N151K/N90K/P208A/P217A/Q86G/Q94H/R138H/R169H/T345S). The assay is described as follows: Class I peptide binding affinity assay.
Assay [1] deals with normal melanocytes in AAD^+tyrosinase^+ (or AAD^−) C57BL/6 mice. As to conditions: mouse, in vivo.

Usually IC50 stands for the point on the concentration scale where inhibition reaches its midpoint. In turn, `CSCC[C@H](NC(=O)[C@@H](NC(=O)CNC(=O)[C@H](CC(=O)O)NC(=O)[C@H](CCSC)NC(=O)[C@@H](N)Cc1ccc(O)cc1)[C@@H](C)O)C(=O)N[C@@H](CO)C(=O)N[C@@H](CCC(N)=O)C(=O)N[C@H](C(=O)O)C(C)C` [YMDGTMSQV] registered an IC50 at HLA-A*0201 of 74 nM.

In turn, FMDGTMSQV [FMDGTMSQV] registered a half-inhibitory concentration (IC50) at HLA-A*0201 of 65 nM. The IC50 values of the last two compounds are within 1.5-fold of each other. Consider “IL-2: Proleukin (IL-2; Chiron), given alone without CTLs”, for which, in assay [1], the “vitiligo, in words” value is “vitiligo was not observed”.
